Measured values reported in patent US20250353873A1, “COMPOUNDS AND METHODS FOR MODULATING APOE EXPRESSION” (Ionis Pharmaceuticals, Inc., priority 2024, published 2025).
Strand notation (5' to 3'): a small letter for the sugar, then the base; units joined by * are phosphorothioate-linked, units joined directly phosphodiester-linked; [ ] holds rarer units or linkages, { } end groups; capitals alone tell only the bases. [ms] = mesyl phosphoramidate linkage; e = 2'-O-(2-methoxyethyl) (MOE); k = constrained ethyl (cEt); [5mC] = 5-methylcytosine; d = 2'-deoxy (DNA)

What was measured:
human APOE RNA [1] = assay: Activity in APOE C57BL/6NTac-Apoeem7250 knock-in mice, single ICV bolus, 16 weeks (Example 12); assay type: in vivo; conditions: single ICV bolus 300 μg, 16 weeks post treatment, normalized to mouse Ppia
Protocol: Modified oligonucleotides described above were tested in the APOE C57BL/6NTac-Apoeem7250 knock-in mouse model described above.
APOE C57BL/6NTac-Apoeem7250 knock-in mice were divided into groups of 3-4 mice each. Each mouse received a single intracerebroventricular (ICV) bolus of 300 μg of modified oligonucleotide. A group of 4 mice received a single ICV bolus with PBS as a negative control.
Sixteen weeks post treatment, mice were sacrificed and RNA was extracted from cortical brain tissue and spinal cord for quantitative real-time RT-PCR analysis of RNA expression of APOE using primer probe set RTS3073 (described herein above). APOE RNA levels were normalized to mouse Ppia. Mouse Ppia was amplified using primer probe set m_cyclo24 (described herein above). Results are presented as percent human APOE RNA relative to the amount of human APOE RNA in PBS treated animals, (% control). Each experiment is identified in separate tables below.

human APOE RNA [2] = assay: Dose-dependent inhibition of human APOE RNA in HepG2 cells, electroporation, 24 hours (Example 6); assay type: cell-based
Protocol: Modified oligonucleotides selected from the examples above were tested at various doses in HepG2.
HepG2 cells plated at a density of 50,000 cells per well were treated by electroporation with various concentrations of modified oligonucleotide as specified in the tables below. […] APOE RNA levels were measured using the human primer probe set RTS3073 (described herein above). APOE RNA levels were normalized to human GAPDH. Human GAPDH was amplified using human primer probe set RTS 104 (described herein above). Results are presented as percent APOE RNA, relative to the amount of APOE RNA in untreated control cells (% UTC). The half maximal inhibitory concentration (IC50) of each modified oligonucleotide was calculated in GraphPad Prism 10 (GraphPad Software, San Diego, CA) and is also presented in the tables below.

| Substance | APOE RNA (% control) Cortex (human APOE RNA [1]) | APOE RNA (% control) Spinal Cord (human APOE RNA [1]) | IC50 (human APOE RNA [2]) | APOE RNA (% UTC) (human APOE RNA [2]; 5 nM) | APOE RNA (% UTC) (human APOE RNA [2]; 13 nM) | APOE RNA (% UTC) (human APOE RNA [2]; 33 nM) | APOE RNA (% UTC) (human APOE RNA [2]; 82 nM) | APOE RNA (% UTC) (human APOE RNA [2]; 205 nM) | APOE RNA (% UTC) (human APOE RNA [2]; 512 nM) | APOE RNA (% UTC) (human APOE RNA [2]; 1,280 nM) | APOE RNA (% UTC) (human APOE RNA [2]; 3,200 nM) | APOE RNA (% UTC) (human APOE RNA [2]; 8,000 nM) | APOE RNA (% UTC) (human APOE RNA [2]; 20,000 nM) |
| --- | --- | --- | --- | --- | --- | --- | --- | --- | --- | --- | --- | --- | --- |
| 1693079: 6-10-4 MOE gapmer TTGGTGAATCTTTATTAAAC, linkages sssosszzszssszssoss (eT*eT*eG*eGeT*eG*dA[ms]dA[ms]dT*d[5mC][ms]dT*dT*dT*dA[ms]dT*dT*eAeA*eA*e[5mC]) [compound 1693079] | 93 % control | 106 % control |  |  |  |  |  |  |  |  |  |  |  |
| 1693060: 5-10-5 MOE gapmer TTGGTGAATCTTTATTAAAC, linkages ssssszzzsssszzsosss (antisense eT*eT*eG*eG*eT*dG[ms]dA[ms]dA[ms]dT*d[5mC]*dT*dT*dT[ms]dA[ms]dT*eTeA*eA*eA*e[5mC]) [compound 1693060] | 93 % control | 93 % control |  |  |  |  |  |  |  |  |  |  |  |
| 1693069: 5-10-5 MOE gapmer ACTTGGTGAATCTTTATTAA, linkages ssssosszzzszsssssss (antisense eA*e[5mC]*eT*eT*eGdG*dT*dG[ms]dA[ms]dA[ms]dT*d[5mC][ms]dT*dT*dT*eA*eT*eT*eA*eA) [compound 1693069] | 78 % control | 66 % control |  |  |  |  |  |  |  |  |  |  |  |
| 1736518: 6-10-4 MOE gapmer CTTGGTGAATCTTTATTAAA, linkages soossszzzssssssssss (e[5mC]*eTeTeG*eG*eT*dG[ms]dA[ms]dA[ms]dT*d[5mC]*dT*dT*dT*dA*dT*eT*eA*eA*eA) [compound 1736518] |  |  | 720 nM | 93 % UTC | 97 % UTC | 99 % UTC | 83 % UTC | 64 % UTC | 44 % UTC | 37 % UTC | 31 % UTC | 30 % UTC | 13 % UTC |
| 1693141: 6-10-4 MOE gapmer ACTTGGTGAATCTTTATTAA, linkages ssssooszzzssssszsss (eA*e[5mC]*eT*eT*eGeGdT*dG[ms]dA[ms]dA[ms]dT*d[5mC]*dT*dT*dT*dA[ms]eT*eT*eA*eA) [compound 1693141] | 82 % control | 66 % control |  |  |  |  |  |  |  |  |  |  |  |
| 1693138: 6-10-4 MOE gapmer CTTGGTGAATCTTTATTAAA, linkages sssssozzzsssszzsoss (e[5mC]*eT*eT*eG*eG*eTdG[ms]dA[ms]dA[ms]dT*d[5mC]*dT*dT*dT[ms]dA[ms]dT*eTeA*eA*eA) [compound 1693138] | 90 % control | 85 % control |  |  |  |  |  |  |  |  |  |  |  |
| 1693066: 5-10-5 MOE gapmer ACTTGGTGAATCTTTATTAA, linkages sssssssszzsssssooss (antisense eA*e[5mC]*eT*eT*eG*dG*dT*dG*dA[ms]dA[ms]dT*d[5mC]*dT*dT*dT*eAeTeT*eA*eA) [compound 1693066] | 88 % control | 73 % control |  |  |  |  |  |  |  |  |  |  |  |
| 1736517 (e[5mC]*eTeTeG*kG*kT*dG[ms]dA[ms]dA[ms]dT*d[5mC]*dT*dT*dT*dA[ms]dT*eT*eA*eA*eA; antisense) [Compound 1736517] |  |  | 470 nM | 106 % UTC | 92 % UTC | 94 % UTC | 84 % UTC | 57 % UTC | 42 % UTC | 35 % UTC | 22 % UTC | 13 % UTC | 10 % UTC |
| 1736519: 6-10-4 MOE gapmer CTTGGTGAATCTTTATTAAA, linkages sososszzzssssssssss (e[5mC]*eTeT*eGeG*eT*dG[ms]dA[ms]dA[ms]dT*d[5mC]*dT*dT*dT*dA*dT*eT*eA*eA*eA) [compound 1736519] |  |  | 340 nM | 107 % UTC | 104 % UTC | 91 % UTC | 75 % UTC | 53 % UTC | 42 % UTC | 25 % UTC | 15 % UTC | 16 % UTC | 5 % UTC |
| 1736516 (e[5mC]*eTeTeG*eG*kT*dG[ms]dA[ms]dA[ms]dT*d[5mC]*dT*dT*dT*dA[ms]dT*eT*eA*eA*eA; antisense) [Compound 1736516] |  |  | 1140 nM | 106 % UTC | 110 % UTC | 121 % UTC | 117 % UTC | 58 % UTC | 59 % UTC | 39 % UTC | 29 % UTC | 32 % UTC | 22 % UTC |
